Laboratory results: patent publication US20110077581A1, “TARGETED CELLULAR DELIVERY OF NANOPARTICLES” (GEORGIA TECH RESEARCH CORPORATION, priority 2009, published 2011)
pIC50: −log10 of the molar value. Where two headings read alike, the source gives them in different places.

Legend:
[1] = system: ERα(+) MCF-7 breast cancer cells; assay: Cell viability assay (MTT or XTT) in ERα(+) MCF-7 breast cancer cells; assay type: cell-based, human; details: conjugate as effective TAM-PEG-SH ligand concentration, read-out: IC50 (50% inhibitory concentration), cell viability
Protocol: Cell culture and nanoparticle incubation. ERα(−) MDA-MB-231 and ERα(+) MCF-7 breast cancer cells (human adenocarcinoma, ATCC) or ERα(+) human squamous cell carcinoma (43-45) (HSC-3) cells were cultured to 10^5 cells/cm^2 in DMEM growth media supplanted with 10% v/v heat-inactivated fetal bovine serum, penicillin (100 U/ml), streptomycin (100 μg/ml), 4.5 g/L glucose, […], without L-glutamine and phenol red at 37° C. in a 5% CO2 humidified atmosphere. Growth media was removed from the cell cultures and replaced with identical media containing gold nanoparticle conjugates heated to 37° C. at time=0 h.
Cell viability assay. Following incubation, growth media containing gold nanoparticle conjugates was removed and cells were rinsed twice in sterile Dulbecco's phosphate buffered saline (DPBS). Mitochondrial dehydrogenase activity was assessed by MTT or XTT spectrophotometric assay (Sigma TOX1, TOX2) following the manufacturer's instructions. The assay was performed using a SpectraMax Plus 384 microplate reader and statistical analysis was performed by t-test.

MCF-7 cells = assay: In vitro laser photothermal therapy of MCF-7 cells; assay type: cell-based, human; details: MCF-7, 0.5 μM, 24 h
Protocol: Following this incubation, cell cultures ere gently rinsed in sterile DPBS buffer and replaced with unmodified growth media prior to laser photothermal treatment. Laser photothermal treatment was performed using the 514.5 nm line of an argon ion laser (Innova 300 Coherent) for 2 min at room temperature (0.32 cm^2). Control cells were similarly removed, however, were untreated with the laser.

[2] = cited from earlier work

Compound	pIC50 ([1]; MCF-7, 24 h incubation)	pIC50 ([1]; MCF-7, 36 h incubation)	pIC50 ([1]; MCF-7, 48 h incubation)	in vitro cytotoxicity in the absence of laser treatment (MCF-7 cells)	steady-state blood plasma concentration ([2]; tamoxifen administered at 10 mg/day)	steady-state blood plasma concentration ([2]; tamoxifen administered at 20 mg/day)
Thiol-pegylated tamoxifen [TAM-PEG-SH]	5.44	5.85	5.96			
CC/C(=C(\c1ccccc1)c1ccc(OCCN(C)C)cc1)c1ccccc1 [tamoxifen]				no appreciable in vitro cytotoxicity	0.40 µM	0.81 µM
